Assays:
RET = biological target: T1, RET (Homo sapiens, UniProt P07949); experiment: KINOMEscan binding assay at 1 μM, RET; conditions: Compound Concentration 1000 nM; read-out: Percent Control
T1 construct: purchased Eurofins DiscoverX KINOMEscan
From the text: (§1) Supplement cells-12-00287-s001.zip/File S2. KinomeScan data for the CAMKK2 probe and negative control.xlsx, sheet "SGC-CAMKK2-1N" | column: Percent Control

ULK1 = biological target: T2, ULK1 (Homo sapiens, UniProt O75385); experiment: KINOMEscan at 1 μM, ULK1; type: binding; conditions: 1000 nM, read-out: Percent Control
T2 construct: purchased Eurofins DiscoverX KINOMEscan
From the text: as §1

EGFR(L861Q) = biological target: T3, EGFR(L861Q) (Homo sapiens, UniProt P00533, L861Q); experiment: KINOMEscan binding assay at 1 μM, EGFR(L861Q); conditions: Compound Concentration 1000 nM; read-out: Percent Control
T3 construct: purchased Eurofins DiscoverX KINOMEscan
From the text: as §1

MEK2 = biological target: T4, MEK2 (Homo sapiens, UniProt P36507); experiment: KINOMEscan at 1 μM, MEK2; type: binding; conditions: 1000 nM, read-out: Percent Control
T4 construct: purchased Eurofins DiscoverX KINOMEscan
From the text: as §1

EPHB4 = biological target: T5, EPHB4 (Homo sapiens, UniProt P54760); experiment: KINOMEscan at 1 μM, EPHB4; type: binding; conditions: 1000 nM, read-out: Percent Control
T5 construct: purchased Eurofins DiscoverX KINOMEscan
From the text: as §1

MINK = biological target: T6, MINK (Homo sapiens, UniProt Q8N4C8); experiment: KINOMEscan at 1 μM, MINK; type: binding; conditions: 1000 nM, read-out: Percent Control
T6 construct: purchased Eurofins DiscoverX KINOMEscan
From the text: as §1

WNK4 = biological target: T7, WNK4 (Homo sapiens, UniProt Q96J92); experiment: KINOMEscan at 1 μM, WNK4; type: binding; conditions: 1000 nM, read-out: Percent Control
T7 construct: purchased Eurofins DiscoverX KINOMEscan
From the text: as §1

FLT3(D835V) = biological target: T8, FLT3(D835V) (Homo sapiens, UniProt P36888, D835V); experiment: KINOMEscan at 1 μM, FLT3(D835V); type: binding; conditions: 1000 nM, read-out: Percent Control
T8 construct: purchased Eurofins DiscoverX KINOMEscan
From the text: as §1

CHEK1 = biological target: T9, CHEK1 (Homo sapiens, UniProt O14757); experiment: KINOMEscan at 1 μM, CHEK1; type: binding; conditions: 1000 nM, read-out: Percent Control
T9 construct: purchased Eurofins DiscoverX KINOMEscan
From the text: as §1

[1] = biological target: T10, ABL1(M351T)-phosphorylated (Homo sapiens, UniProt P00519, M351T); experiment: KINOMEscan at 1 μM, ABL1(M351T)-phosphorylated; type: binding; conditions: 1000 nM, read-out: Percent Control
T10 construct: purchased Eurofins DiscoverX KINOMEscan
From the text: as §1

LKB1 = biological target: T11, LKB1 (Homo sapiens, UniProt Q15831); experiment: KINOMEscan binding assay at 1 μM, LKB1; conditions: Compound Concentration 1000 nM; read-out: Percent Control
T11 construct: purchased Eurofins DiscoverX KINOMEscan
From the text: as §1

CAMK2D = biological target: T12, CAMK2D (Homo sapiens, UniProt Q13557); experiment: KINOMEscan at 1 μM, CAMK2D; type: binding; conditions: 1000 nM, read-out: Percent Control
T12 construct: purchased Eurofins DiscoverX KINOMEscan
From the text: as §1

HIPK4 = biological target: T13, HIPK4 (Homo sapiens, UniProt Q8NE63); experiment: KINOMEscan at 1 μM, HIPK4; type: binding; conditions: 1000 nM, read-out: Percent Control
T13 construct: purchased Eurofins DiscoverX KINOMEscan
From the text: as §1

PIP5K2B = biological target: T14, PIP5K2B (Homo sapiens, UniProt P78356); experiment: KINOMEscan at 1 μM, PIP5K2B; type: binding; conditions: 1000 nM, read-out: Percent Control
T14 construct: purchased Eurofins DiscoverX KINOMEscan
From the text: as §1

CAMK4 = biological target: T15, CAMK4 (Homo sapiens, UniProt Q16566); experiment: KINOMEscan at 1 μM, CAMK4; type: binding; conditions: 1000 nM, read-out: Percent Control
T15 construct: purchased Eurofins DiscoverX KINOMEscan
From the text: as §1

CDC2L1 = biological target: T16, CDC2L1 (Homo sapiens, UniProt P21127); experiment: KINOMEscan at 1 μM, CDC2L1; type: binding; conditions: 1000 nM, read-out: Percent Control
T16 construct: purchased Eurofins DiscoverX KINOMEscan
From the text: as §1

DMPK2 = biological target: T17, DMPK2 (Homo sapiens, UniProt Q6DT37); experiment: KINOMEscan 1 μM, DMPK2; type: binding; conditions: 1000 nM; Entrez CDC42BPG; read-out: Percent Control
T17 construct: purchased Eurofins DiscoverX KINOMEscan
From the text: (§2) Supplement cells-12-00287-s001.zip/File S2. KinomeScan data for the CAMKK2 probe and negative control.xlsx, sheet "SGC-CAMKK2-1" | column: Percent Control

GAK = biological target: T18, GAK (Homo sapiens, UniProt O14976); experiment: KINOMEscan 1 μM, GAK; type: binding; conditions: 1000 nM; Entrez GAK; read-out: Percent Control
T18 construct: purchased Eurofins DiscoverX KINOMEscan
From the text: as §2

BRAF = biological target: T19, BRAF (Homo sapiens, UniProt P15056); experiment: KINOMEscan 1 μM, BRAF; type: binding; conditions: 1000 nM; Entrez BRAF; read-out: Percent Control
T19 construct: purchased Eurofins DiscoverX KINOMEscan
From the text: as §2

PRKD1 = biological target: T20, PRKD1 (Homo sapiens, UniProt Q15139); experiment: DiscoverX KINOMEscan binding assay at 1 μM, PRKD1; conditions: Compound Concentration 1000 nM, read-out: Percent Control
T20 construct: purchased Eurofins DiscoverX KINOMEscan
From the text: as §2

MUSK = biological target: T21, MUSK (Homo sapiens, UniProt O15146); experiment: KINOMEscan 1 μM, MUSK; type: binding; conditions: 1000 nM; Entrez MUSK; read-out: Percent Control
T21 construct: purchased Eurofins DiscoverX KINOMEscan
From the text: as §2

CSK = biological target: T22, CSK (Homo sapiens, UniProt P41240); experiment: KINOMEscan 1 μM, CSK; type: binding; conditions: 1000 nM; Entrez CSK; read-out: Percent Control
T22 construct: purchased Eurofins DiscoverX KINOMEscan
From the text: as §2

PRKG2 = biological target: T23, PRKG2 (Homo sapiens, UniProt Q13237); experiment: KINOMEscan 1 μM, PRKG2; type: binding; conditions: 1000 nM; Entrez PRKG2; read-out: Percent Control
T23 construct: purchased Eurofins DiscoverX KINOMEscan
From the text: as §2

PKAC-alpha = biological target: T24, PKAC-alpha (Homo sapiens, UniProt P17612); experiment: DiscoverX KINOMEscan binding assay at 1 μM, PKAC-alpha; conditions: PKAC-alpha (PRKACA); Compound Concentration 1000 nM; read-out: Percent Control
T24 construct: purchased Eurofins DiscoverX KINOMEscan
From the text: as §2

MYLK4 = biological target: T25, MYLK4 (Homo sapiens, UniProt Q86YV6); experiment: KINOMEscan 1 μM, MYLK4; type: binding; conditions: 1000 nM; Entrez MYLK4; read-out: Percent Control
T25 construct: purchased Eurofins DiscoverX KINOMEscan
From the text: as §2

PIK4CB = biological target: T26, PIK4CB (Homo sapiens, UniProt Q9UBF8); experiment: DiscoverX KINOMEscan binding assay at 1 μM, PIK4CB; conditions: PIK4CB (PI4KB); Compound Concentration 1000 nM; read-out: Percent Control
T26 construct: purchased Eurofins DiscoverX KINOMEscan
From the text: as §2

FGFR4 = biological target: T27, FGFR4 (Homo sapiens, UniProt P22455); experiment: KINOMEscan 1 μM, FGFR4; type: binding; conditions: 1000 nM; Entrez FGFR4; read-out: Percent Control
T27 construct: purchased Eurofins DiscoverX KINOMEscan
From the text: as §2

FLT3(N841I) = biological target: T28, FLT3(N841I) (Homo sapiens, UniProt P36888, N841I); experiment: KINOMEscan 1 μM, FLT3(N841I); type: binding; conditions: 1000 nM; Entrez FLT3; read-out: Percent Control
T28 construct: purchased Eurofins DiscoverX KINOMEscan
From the text: as §2

YES = biological target: T29, YES (Homo sapiens, UniProt P07947); experiment: DiscoverX KINOMEscan binding assay at 1 μM, YES; conditions: YES (YES1); Compound Concentration 1000 nM; read-out: Percent Control
T29 construct: purchased Eurofins DiscoverX KINOMEscan
From the text: as §2

MET = biological target: T30, MET (Homo sapiens, UniProt P08581); experiment: KINOMEscan 1 μM, MET; type: binding; conditions: 1000 nM; Entrez MET; read-out: Percent Control
T30 construct: purchased Eurofins DiscoverX KINOMEscan
From the text: as §2

JNK2 = biological target: T31, JNK2 (Homo sapiens, UniProt P45984); experiment: KINOMEscan 1 μM, JNK2; type: binding; conditions: 1000 nM; Entrez MAPK9; read-out: Percent Control
T31 construct: purchased Eurofins DiscoverX KINOMEscan
From the text: as §2

PKN1 = biological target: T32, PKN1 (Homo sapiens, UniProt Q16512); experiment: KINOMEscan 1 μM, PKN1; type: binding; conditions: 1000 nM; Entrez PKN1; read-out: Percent Control
T32 construct: purchased Eurofins DiscoverX KINOMEscan
From the text: as §2

GCN2(Kin.Dom.2,S808G) = biological target: T33, GCN2(Kin.Dom.2,S808G) (Homo sapiens, UniProt Q9P2K8, S808G); experiment: KINOMEscan 1 μM, GCN2(Kin.Dom.2,S808G); type: binding; conditions: 1000 nM; Entrez EIF2AK4; read-out: Percent Control
T33 construct: GCN2(Kin.Dom.2,S808G); purchased Eurofins DiscoverX KINOMEscan
From the text: as §2

T5 sequence (P54760 16-987): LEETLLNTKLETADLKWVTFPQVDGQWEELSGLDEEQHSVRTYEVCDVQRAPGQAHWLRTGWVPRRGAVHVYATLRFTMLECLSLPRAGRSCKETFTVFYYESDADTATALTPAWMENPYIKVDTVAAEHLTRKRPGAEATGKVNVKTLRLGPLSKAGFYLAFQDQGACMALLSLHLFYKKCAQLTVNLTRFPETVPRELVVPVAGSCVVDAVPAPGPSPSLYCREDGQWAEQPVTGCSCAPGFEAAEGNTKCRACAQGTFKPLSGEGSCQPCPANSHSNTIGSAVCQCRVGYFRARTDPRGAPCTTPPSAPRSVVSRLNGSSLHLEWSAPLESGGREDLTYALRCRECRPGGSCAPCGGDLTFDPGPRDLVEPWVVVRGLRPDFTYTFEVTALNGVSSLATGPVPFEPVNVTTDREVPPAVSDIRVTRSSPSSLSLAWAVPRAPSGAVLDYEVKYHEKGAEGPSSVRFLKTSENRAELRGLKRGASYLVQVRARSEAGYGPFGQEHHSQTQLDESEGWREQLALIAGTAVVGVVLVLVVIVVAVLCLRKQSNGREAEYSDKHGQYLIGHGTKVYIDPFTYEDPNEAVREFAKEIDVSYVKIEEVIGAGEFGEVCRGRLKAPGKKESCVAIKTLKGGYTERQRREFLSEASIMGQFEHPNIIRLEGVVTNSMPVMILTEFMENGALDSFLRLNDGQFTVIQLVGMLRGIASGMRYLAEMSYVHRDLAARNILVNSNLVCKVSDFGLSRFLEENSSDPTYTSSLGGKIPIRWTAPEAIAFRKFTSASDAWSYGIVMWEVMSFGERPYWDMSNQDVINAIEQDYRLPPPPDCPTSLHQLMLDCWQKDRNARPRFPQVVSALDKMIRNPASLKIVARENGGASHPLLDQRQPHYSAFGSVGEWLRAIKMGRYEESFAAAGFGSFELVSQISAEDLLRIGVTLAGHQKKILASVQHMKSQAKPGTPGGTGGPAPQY
T17 sequence (Q6DT37 whole entry): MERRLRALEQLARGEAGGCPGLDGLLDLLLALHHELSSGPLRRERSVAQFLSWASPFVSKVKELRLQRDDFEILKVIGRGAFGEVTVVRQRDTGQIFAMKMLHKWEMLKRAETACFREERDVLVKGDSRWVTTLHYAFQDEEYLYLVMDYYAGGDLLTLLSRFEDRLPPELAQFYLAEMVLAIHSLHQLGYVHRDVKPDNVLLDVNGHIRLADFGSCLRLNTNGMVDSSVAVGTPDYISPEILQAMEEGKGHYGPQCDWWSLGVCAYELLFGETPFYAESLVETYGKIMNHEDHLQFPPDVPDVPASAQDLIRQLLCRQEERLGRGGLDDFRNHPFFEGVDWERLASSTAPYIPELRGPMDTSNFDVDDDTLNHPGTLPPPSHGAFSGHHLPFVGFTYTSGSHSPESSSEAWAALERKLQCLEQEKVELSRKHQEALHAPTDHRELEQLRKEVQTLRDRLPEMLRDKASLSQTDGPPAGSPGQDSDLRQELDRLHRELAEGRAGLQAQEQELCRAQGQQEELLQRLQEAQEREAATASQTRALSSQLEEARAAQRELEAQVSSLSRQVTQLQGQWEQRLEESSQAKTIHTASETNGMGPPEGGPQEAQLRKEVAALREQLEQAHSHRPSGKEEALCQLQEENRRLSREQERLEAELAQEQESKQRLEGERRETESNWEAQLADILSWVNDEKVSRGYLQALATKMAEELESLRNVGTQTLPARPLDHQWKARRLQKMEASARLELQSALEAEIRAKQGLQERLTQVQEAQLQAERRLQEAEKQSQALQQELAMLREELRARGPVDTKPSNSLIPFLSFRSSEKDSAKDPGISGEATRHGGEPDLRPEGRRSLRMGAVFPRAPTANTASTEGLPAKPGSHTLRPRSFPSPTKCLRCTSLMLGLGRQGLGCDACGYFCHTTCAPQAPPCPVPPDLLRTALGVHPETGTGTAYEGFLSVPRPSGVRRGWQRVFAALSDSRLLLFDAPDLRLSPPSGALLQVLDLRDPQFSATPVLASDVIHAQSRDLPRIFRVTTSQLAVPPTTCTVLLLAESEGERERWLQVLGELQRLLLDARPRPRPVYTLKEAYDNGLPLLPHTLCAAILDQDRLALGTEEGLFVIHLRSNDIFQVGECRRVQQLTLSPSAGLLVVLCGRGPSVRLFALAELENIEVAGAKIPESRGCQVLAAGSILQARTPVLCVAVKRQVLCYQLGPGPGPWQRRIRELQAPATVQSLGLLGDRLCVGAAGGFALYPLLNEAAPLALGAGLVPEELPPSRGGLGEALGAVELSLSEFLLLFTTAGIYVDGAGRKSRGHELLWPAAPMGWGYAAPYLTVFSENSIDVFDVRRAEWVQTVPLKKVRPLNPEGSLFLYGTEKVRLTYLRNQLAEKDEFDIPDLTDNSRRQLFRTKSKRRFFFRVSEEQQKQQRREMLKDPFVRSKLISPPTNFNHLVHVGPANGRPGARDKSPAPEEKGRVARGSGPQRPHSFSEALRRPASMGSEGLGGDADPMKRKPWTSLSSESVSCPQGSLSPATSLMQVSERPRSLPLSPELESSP
T21 sequence (O15146 24-869): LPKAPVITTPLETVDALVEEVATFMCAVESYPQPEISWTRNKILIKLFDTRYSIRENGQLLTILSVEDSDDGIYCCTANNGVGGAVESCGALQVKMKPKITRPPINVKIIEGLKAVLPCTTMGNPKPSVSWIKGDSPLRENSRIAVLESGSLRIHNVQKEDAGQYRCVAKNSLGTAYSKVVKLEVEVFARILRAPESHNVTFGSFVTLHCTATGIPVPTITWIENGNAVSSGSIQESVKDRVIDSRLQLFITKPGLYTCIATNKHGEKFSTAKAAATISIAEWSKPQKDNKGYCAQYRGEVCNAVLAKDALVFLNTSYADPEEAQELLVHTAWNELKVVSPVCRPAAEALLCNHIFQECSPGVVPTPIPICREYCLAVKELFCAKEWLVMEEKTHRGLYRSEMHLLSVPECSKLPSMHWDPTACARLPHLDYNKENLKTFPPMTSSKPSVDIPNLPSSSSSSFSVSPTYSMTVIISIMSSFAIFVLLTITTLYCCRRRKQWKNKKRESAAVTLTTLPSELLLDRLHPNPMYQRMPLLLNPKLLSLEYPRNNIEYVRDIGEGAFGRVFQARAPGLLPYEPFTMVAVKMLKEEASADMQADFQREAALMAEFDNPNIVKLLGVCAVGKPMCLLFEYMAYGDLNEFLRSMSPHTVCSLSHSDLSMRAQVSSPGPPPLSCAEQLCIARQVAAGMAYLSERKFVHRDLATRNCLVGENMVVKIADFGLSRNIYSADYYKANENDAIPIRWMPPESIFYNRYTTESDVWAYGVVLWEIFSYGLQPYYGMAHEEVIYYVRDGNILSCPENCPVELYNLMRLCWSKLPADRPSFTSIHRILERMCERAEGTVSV
T13 sequence (Q8NE63 whole entry): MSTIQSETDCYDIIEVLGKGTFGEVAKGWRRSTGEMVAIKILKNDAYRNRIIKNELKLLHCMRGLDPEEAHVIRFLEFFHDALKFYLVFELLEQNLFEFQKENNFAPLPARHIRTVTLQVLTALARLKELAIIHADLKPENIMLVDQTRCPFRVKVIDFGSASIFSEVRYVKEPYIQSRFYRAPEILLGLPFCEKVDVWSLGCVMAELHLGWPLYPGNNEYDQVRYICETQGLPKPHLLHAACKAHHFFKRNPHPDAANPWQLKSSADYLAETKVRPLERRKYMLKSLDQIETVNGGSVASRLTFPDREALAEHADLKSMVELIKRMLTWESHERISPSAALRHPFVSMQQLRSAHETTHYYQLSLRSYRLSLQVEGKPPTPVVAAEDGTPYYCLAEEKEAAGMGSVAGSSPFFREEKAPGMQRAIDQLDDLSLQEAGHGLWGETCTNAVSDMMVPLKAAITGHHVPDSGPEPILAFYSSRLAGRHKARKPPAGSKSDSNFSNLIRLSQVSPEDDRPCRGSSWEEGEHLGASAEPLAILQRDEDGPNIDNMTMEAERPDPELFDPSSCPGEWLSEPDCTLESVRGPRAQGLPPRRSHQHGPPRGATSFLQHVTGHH
T20 sequence (Q15139 whole entry): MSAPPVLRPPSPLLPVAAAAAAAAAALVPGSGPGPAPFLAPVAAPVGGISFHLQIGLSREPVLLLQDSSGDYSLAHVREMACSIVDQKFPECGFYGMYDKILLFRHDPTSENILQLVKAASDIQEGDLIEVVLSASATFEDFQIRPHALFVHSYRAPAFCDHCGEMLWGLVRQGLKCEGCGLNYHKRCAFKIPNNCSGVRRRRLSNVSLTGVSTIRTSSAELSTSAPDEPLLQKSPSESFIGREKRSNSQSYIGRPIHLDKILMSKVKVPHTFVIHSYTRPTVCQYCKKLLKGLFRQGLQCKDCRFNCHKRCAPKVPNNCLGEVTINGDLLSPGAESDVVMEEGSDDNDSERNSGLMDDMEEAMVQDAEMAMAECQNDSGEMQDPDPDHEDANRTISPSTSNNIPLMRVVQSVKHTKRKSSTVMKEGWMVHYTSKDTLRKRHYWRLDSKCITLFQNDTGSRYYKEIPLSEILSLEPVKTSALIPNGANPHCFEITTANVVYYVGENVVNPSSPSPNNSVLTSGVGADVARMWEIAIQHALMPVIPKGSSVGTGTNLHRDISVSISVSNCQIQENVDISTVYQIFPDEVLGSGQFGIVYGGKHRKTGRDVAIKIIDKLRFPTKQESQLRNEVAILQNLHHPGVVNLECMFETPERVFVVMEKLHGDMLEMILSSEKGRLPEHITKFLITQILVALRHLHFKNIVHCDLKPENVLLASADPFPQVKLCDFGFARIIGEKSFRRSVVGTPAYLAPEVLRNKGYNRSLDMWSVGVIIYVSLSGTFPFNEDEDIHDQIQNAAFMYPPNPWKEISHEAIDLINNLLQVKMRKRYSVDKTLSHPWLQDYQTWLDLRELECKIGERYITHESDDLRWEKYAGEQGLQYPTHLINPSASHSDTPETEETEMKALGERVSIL

O=C(O)c1ccc(-c2coc3ncc(-c4ccccc4)cc23)cc1Cl [SGC-CAMKK2-1N (UNC-YL-83)]
remaining binding at 1 µM (RET): 100% | remaining binding at 1 µM (ULK1): 66% | remaining binding at 1 µM (EGFR(L861Q)): 100% | remaining binding at 1 µM (MEK2): 88% | remaining binding at 1 µM (EPHB4): 56% | remaining binding at 1 µM (MINK): 95% | remaining binding at 1 µM (WNK4): 93% | remaining binding at 1 µM (FLT3(D835V)): 97% | remaining binding at 1 µM (CHEK1): 91% | remaining binding at 1 µM [1]: 68% | remaining binding at 1 µM (LKB1): 100% | remaining binding at 1 µM (CAMK2D): 77% | remaining binding at 1 µM (HIPK4): 89% | remaining binding at 1 µM (PIP5K2B): 74% | remaining binding at 1 µM (CAMK4): 100% | remaining binding at 1 µM (CDC2L1): 72%

Cc1cccc(-c2cnc3occ(-c4ccc(C(=O)O)c(C5CCCC5)c4)c3c2)c1 [SGC-CAMKK2-1 (YL-36)]
remaining binding at 1 µM (DMPK2): 97% | remaining binding at 1 µM (GAK): 80% | remaining binding at 1 µM (BRAF): 100% | remaining binding at 1 µM (PRKD1): 100% | remaining binding at 1 µM (MUSK): 84% | remaining binding at 1 µM (CSK): 99% | remaining binding at 1 µM (PRKG2): 99% | remaining binding at 1 µM (PKAC-alpha): 100% | remaining binding at 1 µM (MYLK4): 100% | remaining binding at 1 µM (PIK4CB): 100% | remaining binding at 1 µM (FGFR4): 98% | remaining binding at 1 µM (FLT3(N841I)): 95% | remaining binding at 1 µM (YES): 100% | remaining binding at 1 µM (MET): 92% | remaining binding at 1 µM (JNK2): 100% | remaining binding at 1 µM (PKN1): 84% | remaining binding at 1 µM (GCN2(Kin.Dom.2,S808G)): 42%
